inhibition, IC50 and Ki data for one compound are collected here from ChEMBL document CHEMBL2406999, “Vialinin A is a ubiquitin-specific peptidase inhibitor” (Bioorg Med Chem Lett, 2013).

Experiment [1] deals with T1, Ubiquitin carboxyl-terminal hydrolase 8 (Homo sapiens) (UniProt P40818).
T1 sequence (whole entry): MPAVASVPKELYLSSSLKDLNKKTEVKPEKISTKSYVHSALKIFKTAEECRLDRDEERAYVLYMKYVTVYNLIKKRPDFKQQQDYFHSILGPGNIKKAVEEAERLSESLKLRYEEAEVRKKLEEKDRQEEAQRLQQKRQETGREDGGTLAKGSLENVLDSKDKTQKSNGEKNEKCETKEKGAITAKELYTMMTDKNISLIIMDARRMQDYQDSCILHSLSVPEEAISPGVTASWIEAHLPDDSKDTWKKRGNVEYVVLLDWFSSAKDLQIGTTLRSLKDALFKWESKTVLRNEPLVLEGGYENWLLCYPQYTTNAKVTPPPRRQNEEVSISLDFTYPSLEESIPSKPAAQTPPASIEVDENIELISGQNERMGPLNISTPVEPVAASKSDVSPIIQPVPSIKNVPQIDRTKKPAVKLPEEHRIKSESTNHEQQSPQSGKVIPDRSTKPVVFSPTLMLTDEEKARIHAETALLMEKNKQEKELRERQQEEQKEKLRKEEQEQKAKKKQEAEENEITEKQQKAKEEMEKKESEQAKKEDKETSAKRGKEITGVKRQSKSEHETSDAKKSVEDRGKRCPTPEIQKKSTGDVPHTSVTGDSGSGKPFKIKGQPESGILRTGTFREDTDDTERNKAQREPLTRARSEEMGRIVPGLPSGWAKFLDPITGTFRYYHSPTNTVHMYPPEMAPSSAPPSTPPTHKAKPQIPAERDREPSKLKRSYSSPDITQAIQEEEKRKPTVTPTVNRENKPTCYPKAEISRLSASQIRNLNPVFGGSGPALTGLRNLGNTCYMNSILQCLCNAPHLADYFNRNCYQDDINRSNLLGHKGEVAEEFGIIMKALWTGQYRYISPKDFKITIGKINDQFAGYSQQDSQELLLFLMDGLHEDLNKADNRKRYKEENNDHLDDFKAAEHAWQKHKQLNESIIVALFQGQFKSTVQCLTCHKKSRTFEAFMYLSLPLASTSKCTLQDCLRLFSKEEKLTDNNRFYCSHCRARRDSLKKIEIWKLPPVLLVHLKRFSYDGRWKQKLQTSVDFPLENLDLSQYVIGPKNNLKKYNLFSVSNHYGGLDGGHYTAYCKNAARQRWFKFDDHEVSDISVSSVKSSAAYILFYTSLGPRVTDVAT
As to the kind of experiment: Inhibition of human USP8 using Ub-AMC as substrate at 1 to 30 uM after 60 mins by fluorometric analysis.

The target of experiment [2] is T2, Ubiquitin carboxyl-terminal hydrolase 5 (Homo sapiens, UniProt P45974).
T2 sequence (P45974 whole entry): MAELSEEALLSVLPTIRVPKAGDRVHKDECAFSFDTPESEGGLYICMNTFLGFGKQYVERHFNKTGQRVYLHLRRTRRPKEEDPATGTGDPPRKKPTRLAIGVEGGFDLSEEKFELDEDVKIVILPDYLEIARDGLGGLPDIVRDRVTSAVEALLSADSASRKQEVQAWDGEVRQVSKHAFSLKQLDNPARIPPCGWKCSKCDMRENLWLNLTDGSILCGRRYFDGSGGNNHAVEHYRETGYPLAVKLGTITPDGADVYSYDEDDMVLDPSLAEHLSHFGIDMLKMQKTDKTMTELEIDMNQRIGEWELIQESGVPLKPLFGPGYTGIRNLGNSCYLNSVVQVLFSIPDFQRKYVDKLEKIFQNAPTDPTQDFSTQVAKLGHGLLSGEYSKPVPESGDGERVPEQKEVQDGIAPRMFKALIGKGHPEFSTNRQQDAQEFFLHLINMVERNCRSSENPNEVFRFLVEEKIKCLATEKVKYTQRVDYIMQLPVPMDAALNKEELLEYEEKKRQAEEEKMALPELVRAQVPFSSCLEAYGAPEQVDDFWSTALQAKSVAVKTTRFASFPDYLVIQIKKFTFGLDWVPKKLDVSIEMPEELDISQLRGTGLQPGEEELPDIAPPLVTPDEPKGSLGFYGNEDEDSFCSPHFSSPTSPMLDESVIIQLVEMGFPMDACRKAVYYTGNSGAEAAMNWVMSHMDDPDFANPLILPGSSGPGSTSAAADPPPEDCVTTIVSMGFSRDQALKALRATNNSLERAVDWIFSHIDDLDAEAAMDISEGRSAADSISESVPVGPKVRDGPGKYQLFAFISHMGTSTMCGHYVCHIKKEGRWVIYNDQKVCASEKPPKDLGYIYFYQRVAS
As to the kind of experiment: Inhibition of wild type human USP5 expressed in Escherichia coli BL21(DE3) using Ub-AMC as substrate after 60 mins by fluorometric analysis.

The target in experiment [3] is T3, Ubiquitin carboxyl-terminal hydrolase 4 (Homo sapiens, UniProt Q13107).
T3 sequence (Q13107 whole entry): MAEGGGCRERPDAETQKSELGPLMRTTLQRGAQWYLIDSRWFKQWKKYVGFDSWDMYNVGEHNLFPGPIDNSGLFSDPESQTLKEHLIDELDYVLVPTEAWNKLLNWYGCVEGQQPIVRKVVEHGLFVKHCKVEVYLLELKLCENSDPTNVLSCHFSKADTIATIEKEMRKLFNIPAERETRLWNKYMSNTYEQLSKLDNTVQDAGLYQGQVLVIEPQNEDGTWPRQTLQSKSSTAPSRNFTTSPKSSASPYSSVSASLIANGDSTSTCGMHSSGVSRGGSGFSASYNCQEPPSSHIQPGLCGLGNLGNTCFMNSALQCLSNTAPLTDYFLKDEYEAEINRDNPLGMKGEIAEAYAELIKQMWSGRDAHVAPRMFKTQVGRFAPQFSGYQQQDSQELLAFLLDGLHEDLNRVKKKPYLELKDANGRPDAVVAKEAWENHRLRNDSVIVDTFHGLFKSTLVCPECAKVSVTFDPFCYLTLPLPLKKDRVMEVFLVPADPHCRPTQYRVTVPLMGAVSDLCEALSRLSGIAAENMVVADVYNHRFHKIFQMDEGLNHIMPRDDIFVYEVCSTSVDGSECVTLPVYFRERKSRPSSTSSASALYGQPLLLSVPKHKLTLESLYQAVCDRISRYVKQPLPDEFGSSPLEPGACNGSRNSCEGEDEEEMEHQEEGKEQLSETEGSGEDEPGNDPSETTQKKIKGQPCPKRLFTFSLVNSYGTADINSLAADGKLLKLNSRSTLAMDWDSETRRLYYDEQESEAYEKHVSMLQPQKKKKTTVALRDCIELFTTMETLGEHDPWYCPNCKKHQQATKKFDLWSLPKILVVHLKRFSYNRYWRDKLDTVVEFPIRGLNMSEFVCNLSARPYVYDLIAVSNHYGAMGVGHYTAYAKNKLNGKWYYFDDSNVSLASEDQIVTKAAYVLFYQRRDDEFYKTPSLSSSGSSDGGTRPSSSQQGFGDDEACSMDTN
Kind of experiment: Inhibition of human USP4 using Ub-AMC as substrate after 60 mins by fluorometric analysis.

Active and inactive are the calls of the source. No cut-off for these calls is given here.

The term IC50 denotes the concentration that inhibits the measured activity by half. Lower therefore signals greater potency. The Ki is the equilibrium dissociation constant of an inhibitor or competing ligand from its target. Read a low Ki as a stronger hold on the target. `O=C(Cc1ccccc1)Oc1c(OC(=O)Cc2ccccc2)c(-c2ccc(O)cc2)c(O)c(O)c1-c1ccc(O)cc1` [VIALININ A]: the inhibition result in experiment [1] was “inactive”. In experiment [2], the IC50 worked out at 5.9 µM and the inhibitory constant (Ki) is 4 µM. The compound also returned an IC50 in experiment [3] of 1.5 µM.
